According to US8242086B2, “Methods and compositions for treating disorders caused by a deficiency in a gene product of a CLN gene” (Duke University, priority 2008, dated 2012):

What was measured:
lymphoblasts = test: Propidium iodide staining of lymphoblasts treated with GCT siRNA, with or without etoposide; format: cell-based, human
Experimental: Propidium iodide (PI) staining. Lymphoblasts (treated with GCT siRNA vs. control siRNA) were treated vs. not treated with etoposide and stained with propidium iodide (PI). The percentage of PI positive cells was counted in each.

CLN3 transcript = test: Real-Time PCR validation of CLN3 knockdown in NT2 cells; format: cell-based, human; details: 3 days post-transfection, vs scrambled siRNA
Experimental: (§1) siRNA knockdown of CLN3 in NT2 cells. HS1 siRNA ([…]) for CLN3 knockdown was designed using BLOCK-iT RNA™ Designer (Invitrogen). […] siRNA and scrambled universal negative control siRNA oligonucleotides were transfected into wild type NT2 cells using Lipofectamine RNAiMax™ according to manufacturer's protocol. In brief, […] HS1 RNAi duplex or scrambled siRNA universal negative control were diluted in 50 μl DMEM medium without serum. Lipofectamine™ RNAiMAX was mixed gently before use, then 1 μl was diluted in 50 μl DMEM medium. The diluted RNAi duplexes were combined with the diluted Lipofectamine RNAiMAX and incubated for 10 minutes at room temperature. The RNAi duplex-Lipofectamine™ RNAiMAX complexes were added to cells for a final RNA concentration of 10 nM. Cells were harvested 96 hours post-transfection.
Real-Time PCR validation of CLN3 knockdown. To calculate the effect of CLN3 knockdown following siRNA transfection, RNA from NT2 cells, transfected either with CLN3 siRNA or with scrambled siRNA, was isolated using Trizol reagent (Invitrogen). Reverse transcription was carried out with SuperScript III First-Strand-Synthesis System (Invitrogen). Real Time-PCR was conducted on 500 ng cDNA using /SYBRGreen 10 Mix (Biorad, U.S.A) in a Biorad I-Cycler. […] To confirm CLN3 knockdown, change in fold expression compared to scrambled siRNA transfected control cells was calculated. […]

CLN3 knockdown NT2 cells [1] = test: Cell proliferation rate in CLN3 knockdown NT2 cells, Trypan blue dye exclusion; format: cell-based, human; details: NT2 cells, 3 days post-transfection, vs WT-NT2
Experimental: (§2) Cell Culture and Cell Treatment. NT2 neuronal precursor cells (ATCC cat no. CRL 1973) were grown in DMEM supplemented with 1% sodium pyruvate, L-glutamine and antibiotics and incubated in 37 C and 5% CO2 for 3 days.
as §1, with “Cells were harvested 96 hours post-transfection.” left out
Determination of cell proliferation rate in CLN3 knockdown NT2 cells. 4×10^5 cells transfected with CLN3 siRNA or scrambled siRNA, and treated or not treated with 50 ng/ml GalCer, were seeded and counted with Trypan blue dye exclusion. […]
NT2 cell proliferation and apoptosis rates. An equal number of NT2 cells was initially seeded and cell number determined at different time points with Trypan blue dye exclusion. […]

CLN3 knockdown NT2 cells [2] = test: Cell apoptosis rate in CLN3 knockdown NT2 cells, propidium iodide; format: cell-based, human; details: NT2 cells, 3 days post-transfection, vs wild type
Experimental: as §2
as §1, with “The RNAi duplex-Lipofectamine™ RNAiMAX complexes were added to cells for a final RNA concentration of 10 nM. Cells were harvested 96 hours post-transfection.” left out
Determination of cell apoptosis rate in CLN3 knockdown NT2 cells. 10^6 cells transfected with CLN3 siRNA or scrambled siRNA, either treated with 50 ng/ml of GalCer (Avanti Polar Lipids, inc.) or solvent, are suspended in 100 μl PBS, incubated with 100 μl/0.5 mg/ml PI, washed, placed on slides and viewed using a fluorescence microscope. […] Cells in three fields of vision were counted. Percentage of red staining-apoptotic cells/total cells was determined.

CLN8 protein = test: Protein-lipid overlay assay, CLN8 protein; format: binding; details: lysates from normal cells, custom made sphingostrips
Experimental: (§3) Protein-lipid overlay assay. Membrane arrays (SPHINGOSTRIPS (Echelon Research Laboratories, Salt Lake City, Utah), or lipids were spotted on nitrocellulose membranes and dried for at least one hour. Membranes were blocked with 3% (wt/vol) Fatty Acid Free or FFA-BSA (Sigma-Aldrich, St. Louis, Mo.) in Tris-Buffered Saline Tween-20 (TBST) [150 mM NaCl/10 mM Tris.HCl (pH 8.0), and 0.1% (vol/vol) Tween-20] for 1 h at RT. Blocked membranes were incubated for 8 h at 4° C. with 2 mg/ml of total cell lysate.
(§4) Fibroblasts overexpressing CLN3p (AC1 cells) and JNCL fibroblasts were used for the GalCer-CLN3 binding assay. The membranes were then washed five times for 5 min each with TBST. After washing, membranes were incubated with anti-CLN3, CLN1, CLN2, CLN6 or CLN8-antibodies overnight at 1:1000 dilution, followed by additional washing and incubation with horseradish peroxidase-conjugated anti-rabbit IgG goat antibody for 1 h at RT. After a final washing, enhanced chemiluminescence was used to detect binding of NCL proteins to sphingolipids. Intensity values were computed with an ImageJ software program.
(§5) CLN1, CLN2, CLN6, CLN8 and CLN9 proteins also bind to lipids. […]

CLN1 protein = biological target: T1, CLN1 protein (Homo sapiens, UniProt P50897); test: Protein-lipid overlay assay, CLN1 protein; format: binding; details: lysates from normal cells, custom made sphingostrips
T1 construct: endogenous in cells
T1 sequence (P50897 28-306): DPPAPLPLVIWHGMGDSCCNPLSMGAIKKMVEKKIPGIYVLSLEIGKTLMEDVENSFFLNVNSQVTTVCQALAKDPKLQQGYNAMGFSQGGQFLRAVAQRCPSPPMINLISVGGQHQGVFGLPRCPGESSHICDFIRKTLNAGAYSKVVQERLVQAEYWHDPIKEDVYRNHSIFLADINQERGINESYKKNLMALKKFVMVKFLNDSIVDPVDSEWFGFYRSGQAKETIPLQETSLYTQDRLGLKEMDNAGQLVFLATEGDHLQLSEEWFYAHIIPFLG
Experimental: as §3, §4, §5

CLN2 protein = biological target: T2, CLN2 protein (Homo sapiens, UniProt O14773); test: Protein-lipid overlay assay, CLN2 protein; format: binding; details: lysates from normal cells, custom made sphingostrips
T2 construct: endogenous in cells
T2 sequence (O14773 196-563): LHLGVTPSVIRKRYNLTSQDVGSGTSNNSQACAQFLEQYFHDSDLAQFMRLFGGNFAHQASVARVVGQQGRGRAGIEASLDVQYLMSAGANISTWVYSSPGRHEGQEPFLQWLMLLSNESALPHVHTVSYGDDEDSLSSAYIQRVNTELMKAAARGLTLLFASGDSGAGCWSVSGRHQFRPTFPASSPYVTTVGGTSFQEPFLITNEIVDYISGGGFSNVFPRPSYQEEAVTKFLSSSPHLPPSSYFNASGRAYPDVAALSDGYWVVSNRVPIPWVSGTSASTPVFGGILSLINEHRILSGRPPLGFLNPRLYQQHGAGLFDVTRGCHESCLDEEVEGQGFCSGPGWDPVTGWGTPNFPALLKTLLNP
Experimental: as §3, §4, §5

CLN6 protein = biological target: T3, CLN6 protein (Homo sapiens, UniProt Q9NWW5); test: Protein-lipid overlay assay, CLN6 protein; format: binding; details: lysates from normal cells, custom made sphingostrips
T3 construct: endogenous in cells
T3 sequence (Q9NWW5 1-311): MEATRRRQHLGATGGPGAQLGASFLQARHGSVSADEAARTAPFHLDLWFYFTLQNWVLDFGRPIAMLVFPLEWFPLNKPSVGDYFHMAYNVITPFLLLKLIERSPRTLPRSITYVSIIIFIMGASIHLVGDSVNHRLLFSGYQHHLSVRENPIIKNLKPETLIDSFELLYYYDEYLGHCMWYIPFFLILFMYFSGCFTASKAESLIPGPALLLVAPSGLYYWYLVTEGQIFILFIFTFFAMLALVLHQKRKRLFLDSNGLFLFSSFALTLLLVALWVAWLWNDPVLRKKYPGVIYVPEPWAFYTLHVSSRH
Experimental: as §3, §4
CLN1, CLN2, CLN6, CLN8 and CLN9 proteins also bind to lipids. The protein-lipid overlay assay, using custom made sphingostrips, lysates from normal cells and anti-CLN1, anti-CLN2-, anti-CLN6, and anti-CLN8-antibodies, established that CLN6 and CLN8 proteins bind to GalCer, CLN1, CLN2 and CLN6p bind lysophosphatidic acid (LPA) and sulfatide, and CLN8p binds ceramide (FIG. 5).

wild-type CLN3p = biological target: T4, wild-type CLN3p (Homo sapiens, UniProt Q13286); test: Protein-lipid overlay assay, wild-type CLN3p; format: binding; details: lysate of CLN3-overexpressing cells, anti-CLN3 antibody
T4 construct: expressed in transfected cells; host or cells: fibroblasts overexpressing CLN3p (AC1 cells)
T4 sequence (Q13286 1-438): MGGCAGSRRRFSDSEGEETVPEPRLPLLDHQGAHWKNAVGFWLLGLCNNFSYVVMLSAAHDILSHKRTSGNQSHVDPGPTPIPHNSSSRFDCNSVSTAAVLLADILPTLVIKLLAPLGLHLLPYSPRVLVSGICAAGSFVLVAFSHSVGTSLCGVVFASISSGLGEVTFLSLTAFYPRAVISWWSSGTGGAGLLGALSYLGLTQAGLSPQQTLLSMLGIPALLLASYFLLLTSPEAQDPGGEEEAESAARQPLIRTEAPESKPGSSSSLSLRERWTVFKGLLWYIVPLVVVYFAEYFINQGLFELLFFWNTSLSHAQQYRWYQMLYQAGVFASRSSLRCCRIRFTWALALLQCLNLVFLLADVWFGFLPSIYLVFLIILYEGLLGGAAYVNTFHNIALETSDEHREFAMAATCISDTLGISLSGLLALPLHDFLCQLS
Experimental: as §3, §4
Binding of CLN3 to GalCer and sulfatide. Membranes impregnated with sphingolipids were overlaid with protein cell lysates from CLN3-overexpressing and JNCL cells. Anti-CLN3 antibody was used to evaluate binding. […] The signal for GalCer-wild-type CLN3p binding was weaker because the more polar sulfatide competes with the less polar GalCer for binding to wild-type CLN3p.

mutant CLN3p = test: Protein-lipid overlay assay, mutant CLN3p (JNCL cell lysate); format: binding, human; details: lysate of JNCL cells, anti-CLN3 antibody
Experimental: as §3, §4
Binding of CLN3 to GalCer and sulfatide. Membranes impregnated with sphingolipids were overlaid with protein cell lysates from CLN3-overexpressing and JNCL cells. Anti-CLN3 antibody was used to evaluate binding. […]

`COc1cc([C@@H]2c3cc4c(cc3[C@@H](O[C@@H]3O[C@@H]5CO[C@@H](C)O[C@H]5[C@H](O)[C@H]3O)[C@H]3COC(=O)[C@H]23)OCO4)cc(OC)c1O` [Etoposide, etoposide] was tested, and the “effect of etoposide on apoptosis of GCT knockdown cells” value (lymphoblasts) was “augmented the effect of reduced GalCer on apoptosis”.

With “HS1: HS1 siRNA (TCACGATTTGACTGCAACTCTG) for CLN3 knockdown (listed as DNA, chemistry not given here) [reference compound]” the “decrease in CLN3 expression” value (CLN3 transcript) was 22 fold, the decrease in growth (CLN3 knockdown NT2 cells [1]) was 58% and the increase in apoptosis (CLN3 knockdown NT2 cells [2]) was 2.4 fold.

With ceramide the “binding of CLN8 protein to lipid” value (CLN8 protein) was “binds”.

In the case of lysophosphatidic acid, the “binding of CLN1 protein to lipid” value (CLN1 protein) is reported as “bind”, the “binding of CLN2 protein to lipid” value (CLN2 protein) is reported as “bind” and the “binding of CLN6 protein to lipid” value (CLN6 protein) is reported as “bind”.

For sulfatide, the “binding of wild-type CLN3p to membrane spots impregnated with the lipid” value (wild-type CLN3p) was “bind strongly”, the “binding of mutant CLN3 to membrane spots impregnated with the lipid” value (mutant CLN3p) was “failed to do so” and the “binding of CLN1 protein to lipid” value (CLN1 protein) was “bind”. The “binding of CLN2 protein to lipid” value (CLN2 protein) was “bind” and the “binding of CLN6 protein to lipid” value (CLN6 protein) was “bind”.
